Experimental data: US20240299562A1 (priority 2020, published 2024)
Read-outs that look alike come from different tables or passages of the source. Where a SMILES comes first, the peptide text is derived from it.

Key:
A2780 Cp cells = assay: WST-1 cell viability, A2780 CpR (cisplatin resistant) ovarian cancer cells; type: cell-based
Procedure: (§1) All commercial cell lines were purchased at ATCC (LGC Standards SARL, France). Cells were seeded in 96-well plates according to their optimal seeding density, varying between 5.000 and 10.000 cells/well. After attachment overnight, 10-point serial titrations (1:5) were prepared in their equivalent complete media as recommended by ATCC, starting from the 10 mM stock solutions. For doxorubicin comprising prodrugs dilutions started from 100 μM, while for the parent compound doxorubicin dilutions started at 10 μM. […] Seventy-two hours later, compounds were removed together with the supernatants and cells were washed once with PBS to remove excess drugs.
(§2) The WST-1 assay for cell proliferation and viability (Roche, Switzerland) was performed according to manufacturer's protocol. Absorbances were measured at 4 hrs using a Perkin Elmer Ensight multiplate reader, equipped with Kaleido 2.0 software (Perkin Elmer, USA). Cell viability was expressed as a percentage compared to non-treated cells. Absolute IC50 values were extrapolated from a non-linear fitting following the Sigmoidal-4PL regression method using Graphpad Prism 7.0. Likewise, maximal efficacy was determined as 100% minus the cell viability determined when cells are incubated in the presence of a compound. For instance, if 20% of the cells survive incubation in the presence of a compound, then the maximal efficacy of that compound is 100%-20%=80%.
(§3) Selectivity indices (SI) were defined as the ratio of the concentration of drug required to kill 50% of the cells in normal (control, non-cancer) cells, divided by the concentration required to exert the same efficacy in tumor cells: SI=IC50 (control cell)/IC50 (cancer cell), or SI=^HME-1IC50/cancer IC50.

MIA PaCa-2 cells = assay: WST-1 cell viability, MIA PaCa-2 pancreatic cancer cells; type: cell-based
Procedure: as §1, §2, §3

HCT-116 cells = assay: WST-1 cell viability, HCT-116 colorectal cancer cells; type: cell-based
Procedure: as §1, §2, §3

[1] = WST-1 cell viability, normal HME-1 cells; type: cell-based, human; conditions: human; HME-1 normal cells; 72 hrs, WST-1 (Table 2); read-out: Maximal efficacy, cytotoxicity (%) at 100 μM
Procedure: as §1, §2, §3

HME-1 cells = assay: WST-1 cell viability, normal HME-1 cells; type: cell-based, human; conditions: for IC50: read-out: Absolute IC50
Procedure: as §1, §2, §3

A2058 cells = assay: WST-1 cell viability, A2058 melanoma cells; type: cell-based; conditions: for IC50: read-out: Absolute IC50
Procedure: as §1, §2, §3

U-87 MG cells = assay: WST-1 cell viability, U-87 MG glioblastoma cells; type: cell-based; conditions: for IC50: read-out: Absolute IC50
Procedure: as §1, §2, §3

MDA-MB-231 cells = assay: WST-1 cell viability, MDA-MB-231 triple negative breast cancer cells; type: cell-based; conditions: for IC50: read-out: Absolute IC50
Procedure: as §1, §2, §3

NCI-1299 cells = assay: WST-1 cell viability, NCI-H1299 lung cancer cells; type: cell-based
Procedure: as §1, §2, §3

[2] = tested on: U87 MG glioblastoma cells subcutaneously implanted in nude NMRI mice; assay: In vivo activity of PhAc-ALLP-Dox on U87 MG glioblastoma xenograft; set-up: species or system mouse; conditions: 30 mg/kg iv, once per week, four administrations
Procedure: The in vivo efficacy of PhAc-ALLP-Dox was tested in a mouse GBM model. U87 MG glioblastoma cells were subcutaneously (SC) implanted in nude NMRI mice. In total, 32 adult (9-10 weeks old) nude female NMRI mice (Janvier, France) were subjected to SC tumor cell grafting in the right flank. In total, 5×10^6 U87 MG cells resuspended in PBS plus Matrigel (1:1) were injected in 200 uL final volume. As soon as the tumors were palpable and reached the volume of 200 mm3 the treatment was started. At day zero, mice were randomly divided into 4 groups, based on the tumor volume, in order to have the following experimental sub-cohorts: • control group receiving the vehicle (PBS pH7.2) with a dose of 5 ml/kg, intravenously (iv), once per week (QW); • PhAc-ALLP-Dox (30 mg/kg iv, QW); • PhAc-ALGP-Dox (154 mg/kg iv, QW); • Dox (5 mg/kg iv, QW).
Treatments were performed once per week for a total of four tail vein administrations/injections (on days 1, 7, 14 and 21). One extra week of observation followed the active treatment phase. During the experiment, tumor volume was measured two times a week and was assessed three-dimensionally with a digital caliper (Mitutoyo, Illinois) using the following formula:
V=4/3π×[(d/2)^2×(D/2)], where d is the minor tumor axis and D is the major tumor axis.

A-172 cells = assay: WST-1 cell viability, A-172 glioblastoma cells; type: cell-based; conditions: for IC50: read-out: Absolute IC50
Procedure: as §1, §2, §3

[3] = tested on: Human umbilical vein endothelial cells (HUVEC); assay: WST-1 cell viability, normal HUVEC cells; type: cell-based; conditions: 72 hrs
Procedure: as §1, §2, §3

MDA-MB-468 cells = assay: WST-1 cell viability, MDA-MB-468 triple negative breast cancer cells; type: cell-based
Procedure: as §1, §2, §3

DU145 cells = assay: WST-1 cell viability, DU145 prostate cancer cells; type: cell-based
Procedure: as §1, §2, §3

COc1cccc2c1C(=O)c1c(O)c3c(c(O)c1C2=O)C[C@@](O)(C(=O)CO)C[C@@H]3O[C@H]1C[C@H](NC(=O)[C@@H]2CCCN2C(=O)[C@H](CC(C)C)NC(=O)[C@H](CC(C)C)NC(=O)[C@H](C)NC(=O)CP(=O)(O)O)[C@H](O)[C@H](C)O1 [PhAc-ALLP-Dox, PhAc-ALLP-Doxorubicin] (HELM PEPTIDE1{[O=C(CP(=O)(O)O)[*:2]].A.L.L.P.[COc1cccc2c1C(=O)c1c(O)c3c(c(O)c1C2=O)C[C@@](O)(C(=O)CO)C[C@@H]3O[C@H]1C[C@H](N[*:1])[C@H](O)[C@H](C)O1]}$$$$V2.0)
SI = HME-1 IC50/cancer IC50 (A2780 Cp cells; A2780 Cp (OvC) vs HME-1 (Table 3)): 257.22 | Maximal efficacy, cytotoxicity (%) at 100 μM (A2780 Cp cells; A2780 Cp (OvC), 72 hrs, WST-1 (Table 2)): 85.27% | IC50 (A2780 Cp cells; A2780 Cp (OvC, cisplatin resistant), 72 hrs, WST-1 (Table 1), read-out: Absolute IC50): 140 nM | SI = HME-1 IC50/cancer IC50 (MIA PaCa-2 cells; MIA PaCa-2 (PaC) vs HME-1 (Table 3)): 0.79 | IC50 (MIA PaCa-2 cells; MIA PaCa-2 (PaC), 72 hrs, WST-1 (Table 1), read-out: Absolute IC50): 46800 nM | Maximal efficacy, cytotoxicity (%) at 100 μM (MIA PaCa-2 cells; MIA PaCa-2 (PaC), 72 hrs, WST-1 (Table 2)): 65.41% | SI = HME-1 IC50/cancer IC50 (HCT-116 cells; HCT-116 (CrC) vs HME-1 (Table 3)): 3.34 | IC50 (HCT-116 cells; HCT-116 (CrC), 72 hrs, WST-1 (Table 1), read-out: Absolute IC50): 11100 nM | Maximal efficacy, cytotoxicity (%) at 100 μM (HCT-116 cells; HCT-116 (CrC), 72 hrs, WST-1 (Table 2)): 67.49% | cytotoxicity at 72 h, 100 µM [1]: 59.5% | SI = HME-1 IC50/cancer IC50 (HME-1 cells; HME-1 normal cells against themselves (Table 3)): 1.00 | IC50 (HME-1 cells; HME-1 normal cells, 72 hrs continuous drug exposure, WST-1 (Table 1)): 36900 nM | IC50 (HME-1 cells; HME-1 normal cells, 72 hrs, WST-1 (Table 4)): 36900 nM | Maximal efficacy (HME-1 cells; HME-1 normal cells, 72 hrs, WST-1, cytotoxicity at highest concentration (Table 5)): 59.5% | SI = HME-1 IC50/cancer IC50 (A2058 cells; A2058 (Melanoma) vs HME-1 (Table 3)): 298.19 | SI = HUVEC IC50 / cancer IC50 (A2058 cells; A2058 (Melanoma), * towards HUVEC cells (Table 6)): *336.1 | SI = normal IC50 / cancer IC50 (A2058 cells; A2058 (Melanoma), selectivity towards HME-1 cells (Table 6)): 298.2 | IC50 (A2058 cells; A2058 (Melanoma), 72 hrs, WST-1 (Table 1)): 120 nM | Maximal efficacy, cytotoxicity (%) at 100 μM (A2058 cells; A2058 (Melanoma), 72 hrs, WST-1 (Table 2)): 97.56% | IC50 (A2058 cells; A2058 (Melanoma), 72 hrs, WST-1 (Table 4)): 120 nM | Maximal efficacy (A2058 cells; A2058 (Melanoma), 72 hrs, WST-1 (Table 5)): 97.6% | SI = HME-1 IC50/cancer IC50 (U-87 MG cells; U-87 MG (GBM) vs HME-1 (Table 3)): 128.53 | SI = HUVEC IC50 / cancer IC50 (U-87 MG cells; U-87 MG (GBM), * towards HUVEC cells (Table 6)): *144.9 | SI = iAstro IC50 / cancer IC50 (U-87 MG cells; U-87 MG (GBM), ** towards hiPSCs (iAstro) (Table 6)): **14.1 | SI = normal IC50 / cancer IC50 (U-87 MG cells; U-87 MG (GBM), selectivity towards HME-1 cells (Table 6)): 128.5 | IC50 (U-87 MG cells; U-87 MG (GBM), 72 hrs, WST-1 (Table 1)): 290 nM | Maximal efficacy, cytotoxicity (%) at 100 μM (U-87 MG cells; U-87 MG (GBM), 72 hrs, WST-1 (Table 2)): 94.35% | IC50 (U-87 MG cells; U-87 MG (GBM), 72 hrs, WST-1 (Table 4)): 1440 nM | Maximal efficacy (U-87 MG cells; U-87 MG (GBM), 72 hrs, WST-1 (Table 5)): 97.1% | SI = HME-1 IC50/cancer IC50 (MDA-MB-231 cells; MDA-MB-231 (TNBC) vs HME-1 (Table 3)): 3.85 | SI = HUVEC IC50 / cancer IC50 (MDA-MB-231 cells; MDA-MB-231 (TNBC), * towards HUVEC cells (Table 6)): *23.6 | SI = normal IC50 / cancer IC50 (MDA-MB-231 cells; MDA-MB-231 (TNBC), selectivity towards HME-1 cells (Table 6)): 20.9 | IC50 (MDA-MB-231 cells; MDA-MB-231 (TNBC), 72 hrs, WST-1 (Table 1)): 9570 nM | Maximal efficacy, cytotoxicity (%) at 100 μM (MDA-MB-231 cells; MDA-MB-231 (TNBC), 72 hrs, WST-1 (Table 2)): 71.20% | IC50 (MDA-MB-231 cells; MDA-MB-231 (TNBC), 72 hrs, WST-1 (Table 4)): 9570 nM | Maximal efficacy (MDA-MB-231 cells; MDA-MB-231 (TNBC), 72 hrs, WST-1 (Table 5)): 71.2% | SI = HME-1 IC50/cancer IC50 (NCI-1299 cells; NCI-1299 (NSCLC) vs HME-1 (Table 3)): 27.39 | IC50 (NCI-1299 cells; NCI-1299 (NSCLC), 72 hrs, WST-1 (Table 1), read-out: Absolute IC50): 1350 nM | Maximal efficacy, cytotoxicity (%) at 100 μM (NCI-1299 cells; NCI-1299 (NSCLC), 72 hrs, WST-1 (Table 2)): 70.15% | Tumor volume compared to the untreated control group [2]: importantly reduced the tumor volume | SI = HME-1 IC50/cancer IC50 (A-172 cells; A-172 (GBM) vs HME-1 (Table 3)): 30.54 | SI = HUVEC IC50 / cancer IC50 (A-172 cells; A-172 (GBM), * towards HUVEC cells (Table 6)): *34.4 | SI = iAstro IC50 / cancer IC50 (A-172 cells; A-172 (GBM), ** towards hiPSCs (iAstro) (Table 6)): **15.8 | SI = normal IC50 / cancer IC50 (A-172 cells; A-172 (GBM), selectivity towards HME-1 cells (Table 6)): 30.5 | IC50 (A-172 cells; A-172 (GBM), 72 hrs, WST-1 (Table 1)): 1210 nM | Maximal efficacy, cytotoxicity (%) at 100 μM (A-172 cells; A-172 (GBM), 72 hrs, WST-1 (Table 2)): 98.08% | IC50 (A-172 cells; A-172 (GBM), 72 hrs, WST-1 (Table 4)): 1290 nM | Maximal efficacy (A-172 cells; A-172 (GBM), 72 hrs, WST-1 (Table 5)): 80.9% | Selectivity index towards hiPSC-derived astrocytes, GBM (A-172 cells; GBM indication as a whole (A-172 and U-87 MG), vs iAstro): 14.9±0.8 | IC50 ([3]; WST-1 (Table 4), read-out: Absolute IC50): 41600 nM | Maximal efficacy ([3]; WST-1 (Table 5)): 53.1% | SI = HME-1 IC50/cancer IC50 (MDA-MB-468 cells; MDA-MB-468 (TNBC) vs HME-1 (Table 3)): 20.94 | IC50 (MDA-MB-468 cells; MDA-MB-468 (TNBC), 72 hrs, WST-1 (Table 1), read-out: Absolute IC50): 1760 nM | Maximal efficacy, cytotoxicity (%) at 100 μM (MDA-MB-468 cells; MDA-MB-468 (TNBC), 72 hrs, WST-1 (Table 2)): 87.18% | SI = HME-1 IC50/cancer IC50 (DU145 cells; DU145 (PrC) vs HME-1 (Table 3)): 5.25 | IC50 (DU145 cells; DU145 (PrC), 72 hrs, WST-1 (Table 1), read-out: Absolute IC50): 7020 nM | Maximal efficacy, cytotoxicity (%) at 100 μM (DU145 cells; DU145 (PrC), 72 hrs, WST-1 (Table 2)): 79.25%
